According to US11530223B2, “Spiro-lactam NMDA receptor modulators and uses thereof” (Aptinyx Inc., priority 2016, dated 2022):

Columns and labels:
[1] = oral pharmacokinetics (plasma, brain, CSF); type: in vivo; settings: Sprague Dawley rats, per os 10 mg/kg; for AUC(0-t) / bioavailability / Cmax: Sprague Dawley, 10 mg/kg; for AUC(0-t) / bioavailability / Cmax / Tmax: rat, plasma, po; for Cmax: read-out: Cmax; for Tmax: normal saline (first four compounds: 5% NMP, 5% Solutol HS, 90% normal saline), read-out: Tmax
Experimental: Plasma, brain, and CSF samples were analyzed at various time points over a 24 hour period.

NMDAR2A = target: T1, NMDAR2A (Homo sapiens, UniProt Q12879); assay: [3H]MK-801 binding in NMDAR2A expressing HEK cell membranes; type: biochemical; settings: 50 μM glutamate; for EC50: read-out: B: log EC50 (converted)
T1 construct: expressed in transfected cells; host or cells: HEK cells (membrane extract)
T1 sequence (Q12879 23-1464, species assumed, other chains not shown): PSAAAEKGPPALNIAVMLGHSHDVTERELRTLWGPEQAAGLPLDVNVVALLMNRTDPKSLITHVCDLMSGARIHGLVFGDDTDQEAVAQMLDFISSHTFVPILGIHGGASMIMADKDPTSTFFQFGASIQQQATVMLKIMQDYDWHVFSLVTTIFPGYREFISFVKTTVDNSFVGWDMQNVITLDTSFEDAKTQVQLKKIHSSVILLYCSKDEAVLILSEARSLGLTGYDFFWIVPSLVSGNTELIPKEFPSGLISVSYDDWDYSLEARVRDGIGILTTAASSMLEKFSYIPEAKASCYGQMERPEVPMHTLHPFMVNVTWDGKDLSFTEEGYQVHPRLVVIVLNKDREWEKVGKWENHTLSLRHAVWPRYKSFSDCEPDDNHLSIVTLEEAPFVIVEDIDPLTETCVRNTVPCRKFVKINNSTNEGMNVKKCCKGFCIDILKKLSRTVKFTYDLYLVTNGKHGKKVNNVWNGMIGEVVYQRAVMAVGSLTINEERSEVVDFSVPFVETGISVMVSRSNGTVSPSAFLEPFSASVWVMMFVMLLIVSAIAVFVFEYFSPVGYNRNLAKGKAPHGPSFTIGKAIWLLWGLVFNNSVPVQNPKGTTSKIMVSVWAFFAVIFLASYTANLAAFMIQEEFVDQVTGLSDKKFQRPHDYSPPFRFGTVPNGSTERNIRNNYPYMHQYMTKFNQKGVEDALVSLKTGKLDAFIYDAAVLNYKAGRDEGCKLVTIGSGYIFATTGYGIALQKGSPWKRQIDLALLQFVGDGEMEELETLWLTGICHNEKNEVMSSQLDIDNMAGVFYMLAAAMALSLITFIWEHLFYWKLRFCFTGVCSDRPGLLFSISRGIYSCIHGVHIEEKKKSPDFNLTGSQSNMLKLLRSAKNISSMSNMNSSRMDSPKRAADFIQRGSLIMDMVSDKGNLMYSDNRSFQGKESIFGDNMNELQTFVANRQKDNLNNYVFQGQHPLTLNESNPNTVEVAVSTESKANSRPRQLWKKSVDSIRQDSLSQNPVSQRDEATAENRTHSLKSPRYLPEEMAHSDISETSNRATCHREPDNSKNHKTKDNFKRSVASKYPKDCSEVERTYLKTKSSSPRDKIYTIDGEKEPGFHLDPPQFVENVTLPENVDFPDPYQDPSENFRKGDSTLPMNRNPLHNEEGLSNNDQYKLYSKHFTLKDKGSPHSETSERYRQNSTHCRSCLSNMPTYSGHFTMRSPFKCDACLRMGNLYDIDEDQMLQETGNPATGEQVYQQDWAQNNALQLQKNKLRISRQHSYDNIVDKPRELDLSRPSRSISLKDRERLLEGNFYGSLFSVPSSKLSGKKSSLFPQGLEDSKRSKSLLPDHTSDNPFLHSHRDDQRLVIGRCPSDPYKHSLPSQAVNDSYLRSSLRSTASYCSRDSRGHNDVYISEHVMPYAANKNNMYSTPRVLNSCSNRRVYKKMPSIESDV
Summary of the method: (§1)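 HEK membranes (300 μg protein) expressing one NMDAR2 subtype preincubated 15 min at 25 °C with 50 μM glutamate and compound (1×10^−15–1×10^−7 M), then 15 min with [3H]MK-801 (nonequilibrium), filtered. Baseline-subtracted binding expressed as % of 1 mM glycine; EC50 and % maximal from three-parameter fit.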

NMDAR2C = target: T2, NMDAR2C (Homo sapiens, UniProt Q14957); assay: [3H]MK-801 binding in NMDAR2C expressing HEK cell membranes; type: biochemical; settings: second part of table (r25-r35); c2, taken as NMDAR2C; read-out: B: log EC50 (converted)
T2 construct: expressed in transfected cells; host or cells: HEK cells (membrane extract)
Experimental: Assays were conducted as described by Moskal et al., “GLYX-13: a monoclonal antibody-derived peptide that acts as an N-methyl-D-aspartate receptor modulator,” Neuropharmacology, 49, 1077-87, 2005. These studies were designed to determine if the test compounds act to facilitate NMDAR activation in NMDAR2A, NMDAR2B, NMDAR2C or NMDAR2D expressing HEK cell membranes as measured by increases in [^3H]MK-801 binding.
In the assay, 300 μg of NMDAR expressing HEK cell membrane extract protein was preincubated for 15 minutes at 25° C. in the presence of saturating concentrations of glutamate (50 μM) and varying concentrations of test compound (1×10^−15M−1×10^−7M), or 1 mM glycine. Following the addition of 0.3 μCi of [^3H]MK-801 (22.5 Ci/mmol), reactions were again incubated for 15 minutes at 25° C. (nonequilibrium conditions). Bound and free [^3H]MK-801 were separated via rapid filtration using a Brandel apparatus.
In analyzing the data, the DPM (disintegrations per minute) of [^3H]MK-801 remaining on the filter were measured for each concentration of test compound or for 1 mM glycine. The DPM values for each concentration of a ligand (N=2) were averaged. The baseline value was determined from the best fit curve of the DPM values modeled using the GraphPad program and the log(agonist) vs. response (three parameters) algorithm was then subtracted from all points in the dataset. The % maximal [^3H]MK-801 binding was then calculated relative to that of 1 mM glycine: all baseline subtracted DPM values were divided by the average value for 1 mM glycine. The EC50 and % maximal activity were then obtained from the best fit curve of the % maximal [^3H]MK-801 binding data modelled using the GraphPad program and the log(agonist) vs. response (three parameters) algorithm. […]

NMDAR2B = target: T3, NMDAR2B (Homo sapiens, UniProt Q13224); assay: [3H]MK-801 binding in NMDAR2B expressing HEK cell membranes; type: biochemical; settings: 50 μM glutamate; for EC50: read-out: B: log EC50 (converted)
T3 construct: expressed in transfected cells; host or cells: HEK cells (membrane extract)
T3 sequence (Q13224 27-1484, species assumed, other chains not shown): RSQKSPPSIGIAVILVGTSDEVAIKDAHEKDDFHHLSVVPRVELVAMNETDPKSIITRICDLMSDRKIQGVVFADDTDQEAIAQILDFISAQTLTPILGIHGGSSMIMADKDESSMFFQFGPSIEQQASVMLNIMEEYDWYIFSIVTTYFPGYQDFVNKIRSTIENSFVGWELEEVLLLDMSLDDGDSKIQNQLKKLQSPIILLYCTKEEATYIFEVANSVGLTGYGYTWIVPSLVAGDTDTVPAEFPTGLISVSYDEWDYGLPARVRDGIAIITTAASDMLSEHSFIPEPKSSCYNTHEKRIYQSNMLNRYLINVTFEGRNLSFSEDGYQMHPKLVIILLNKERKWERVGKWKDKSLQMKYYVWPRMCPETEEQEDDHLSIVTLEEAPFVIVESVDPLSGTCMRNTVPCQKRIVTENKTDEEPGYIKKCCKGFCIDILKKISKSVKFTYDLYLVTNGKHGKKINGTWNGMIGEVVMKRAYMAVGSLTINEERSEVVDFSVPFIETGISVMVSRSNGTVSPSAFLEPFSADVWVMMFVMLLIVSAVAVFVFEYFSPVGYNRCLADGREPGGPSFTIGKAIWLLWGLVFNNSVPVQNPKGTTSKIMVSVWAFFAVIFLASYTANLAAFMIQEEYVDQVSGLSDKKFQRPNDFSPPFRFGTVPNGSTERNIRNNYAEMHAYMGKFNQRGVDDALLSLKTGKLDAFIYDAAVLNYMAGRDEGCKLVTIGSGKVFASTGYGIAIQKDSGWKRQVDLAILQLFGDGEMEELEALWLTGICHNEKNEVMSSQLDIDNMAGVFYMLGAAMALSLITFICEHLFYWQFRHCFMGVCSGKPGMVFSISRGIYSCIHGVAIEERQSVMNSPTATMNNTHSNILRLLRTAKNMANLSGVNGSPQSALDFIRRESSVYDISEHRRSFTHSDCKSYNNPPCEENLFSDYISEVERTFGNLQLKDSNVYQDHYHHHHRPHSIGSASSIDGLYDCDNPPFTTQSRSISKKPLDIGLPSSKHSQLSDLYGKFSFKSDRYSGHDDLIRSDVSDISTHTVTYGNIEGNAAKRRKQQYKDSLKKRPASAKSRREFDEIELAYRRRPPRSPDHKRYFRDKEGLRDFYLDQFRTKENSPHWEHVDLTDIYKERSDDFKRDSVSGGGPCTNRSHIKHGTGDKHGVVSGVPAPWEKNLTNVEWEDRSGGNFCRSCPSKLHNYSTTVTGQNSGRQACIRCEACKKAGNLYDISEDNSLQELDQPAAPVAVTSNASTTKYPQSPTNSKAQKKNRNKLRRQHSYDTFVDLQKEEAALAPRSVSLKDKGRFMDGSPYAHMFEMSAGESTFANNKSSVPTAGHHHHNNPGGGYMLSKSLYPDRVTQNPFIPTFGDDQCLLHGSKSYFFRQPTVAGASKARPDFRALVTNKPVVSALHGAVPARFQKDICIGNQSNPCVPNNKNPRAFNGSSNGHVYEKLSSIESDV
Summary of the method: as §1

NMDAR2D = target: T4, NMDAR2D (Homo sapiens, UniProt O15399+Q05586); assay: [3H]MK-801 binding in NMDAR2D expressing HEK cell membranes; type: biochemical; settings: for EC50: second part of table (r25-r35), c4, taken as NMDAR2D, read-out: B: log EC50 (converted); for Emax: second part of table, c3, taken as NMDAR2D, read-out: A: % maximal [3H]MK-801 binding relative to 1 mM glycine
T4 construct: expressed in transfected cells; host or cells: HEK cells (membrane extract)
T4 sequence (O15399 28-1336, species assumed, other chains not shown): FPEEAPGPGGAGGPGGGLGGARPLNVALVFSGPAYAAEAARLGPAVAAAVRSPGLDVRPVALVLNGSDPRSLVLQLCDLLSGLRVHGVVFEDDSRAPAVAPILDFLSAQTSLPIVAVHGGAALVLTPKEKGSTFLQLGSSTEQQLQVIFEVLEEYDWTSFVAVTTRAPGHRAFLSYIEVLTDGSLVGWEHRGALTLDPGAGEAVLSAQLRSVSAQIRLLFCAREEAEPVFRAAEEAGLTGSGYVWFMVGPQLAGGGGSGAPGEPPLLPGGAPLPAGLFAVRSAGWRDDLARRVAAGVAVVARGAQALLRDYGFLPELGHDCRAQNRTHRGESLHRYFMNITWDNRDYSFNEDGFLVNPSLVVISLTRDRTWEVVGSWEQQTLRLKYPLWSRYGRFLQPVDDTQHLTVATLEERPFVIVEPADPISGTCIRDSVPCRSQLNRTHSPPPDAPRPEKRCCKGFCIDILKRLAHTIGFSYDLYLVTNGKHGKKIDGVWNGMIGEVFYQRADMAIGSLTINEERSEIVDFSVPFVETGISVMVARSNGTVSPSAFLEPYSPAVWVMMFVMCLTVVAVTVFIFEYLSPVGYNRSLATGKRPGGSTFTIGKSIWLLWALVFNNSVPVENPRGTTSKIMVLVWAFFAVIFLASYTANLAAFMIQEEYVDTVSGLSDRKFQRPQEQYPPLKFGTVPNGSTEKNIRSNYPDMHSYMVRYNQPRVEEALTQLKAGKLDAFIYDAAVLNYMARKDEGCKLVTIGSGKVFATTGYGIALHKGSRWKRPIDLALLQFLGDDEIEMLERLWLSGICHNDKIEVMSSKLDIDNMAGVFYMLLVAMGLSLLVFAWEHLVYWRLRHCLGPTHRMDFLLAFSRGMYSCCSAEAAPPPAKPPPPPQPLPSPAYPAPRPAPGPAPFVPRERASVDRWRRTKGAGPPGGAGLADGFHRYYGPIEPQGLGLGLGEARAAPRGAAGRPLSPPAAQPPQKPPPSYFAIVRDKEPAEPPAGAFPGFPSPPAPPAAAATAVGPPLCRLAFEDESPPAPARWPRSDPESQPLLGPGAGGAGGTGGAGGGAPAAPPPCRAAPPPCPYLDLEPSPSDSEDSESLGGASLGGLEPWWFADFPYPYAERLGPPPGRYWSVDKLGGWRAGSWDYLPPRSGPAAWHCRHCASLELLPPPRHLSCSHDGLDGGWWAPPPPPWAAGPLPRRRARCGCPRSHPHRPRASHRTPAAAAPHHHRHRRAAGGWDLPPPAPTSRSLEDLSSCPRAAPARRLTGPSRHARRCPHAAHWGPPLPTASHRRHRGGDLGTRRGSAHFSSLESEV
Summary of the method: as §1

IV pharmacokinetics = type: in vivo; settings: Sprague Dawley, rat, in vivo, iv, 2 mg/kg, Sprague Dawley rats; for C0: normal saline (first four compounds: 5% NMP, 5% Solutol HS, 90% normal saline), read-out: C0; for Vd: read-out: Vss
Experimental: Sprague Dawley rats were dosed intravenously using a normal saline formulation containing 2 mg/kg of the compounds identified in the below table (except for the first four compounds that were delivered in 5% NMP, 5% Solutol® HS and 90% normal saline formulation). The table below summarizes the results of the IV pharmacokinetics.

rats = assay: positive emotional learning (PEL) test, 50-kHz ultrasonic vocalizations; type: in vivo; settings: rat, PO, dose .001-1 mg/kg, one hour after administration
Experimental: Experiments were conducted as described in Burgdorf et al., “The effect of selective breeding for differential rates of 50-kHz ultrasonic vocalizations on emotional behavior in rats,” Devel. Psychobiol., 51:34-46 (2009). Rat 50-kHz ultrasonic vocalization (hedonic USVs) is a validated model for the study of positive affective state and is best elicited by rough-and-tumble play.
The PEL assay measures the acquisition of positive (hedonic) 50-kHz ultrasonic vocalizations (USVs) to a social stimulus, heterospecific rough and tumble play stimulation. Heterospecific rough-and-tumble play stimulation was administered by the experimenter's right hand. One hour after administration of test compound or vehicle negative control (0.5% sodium carboxymethyl cellulose in 0.9% sterile saline vehicle), animals received 3 min of heterospecific rough-and-tumble play that consisted of alternating 15 sec blocks of heterospecific play and 15 sec of no-stimulation. High frequency ultrasonic vocalizations (USVs) were recorded and analyzed by sonogram with Avasoft SASlab Pro (Germany) as previously described by Burgdorf et al., “Positive emotional learning is regulated in the medial prefrontal cortex by GluN2B-containing NMDA receptors,” Neuroscience, 192:515-523 (2011). Frequency modulated 50-kHz USVs that occurred during each of the no-stimulation periods were quantified to measure PEL. Animals were not habituated to play stimulation before testing. Positive emotional learning was measured during the conditioned stimulus (CS) trials preceding the tickle unconditioned stimulus (UCS) trials. Animals received 15 second trials consisting of 6 CS and 6 UCS trials each (3 min total).
The table below summarizes the findings. As each experiment includes its own vehicle group, an example (typical) vehicle score is shown. Max effect (mean number of 50 kHz USVs per 15 seconds) is reported as ^: <6.0; *: 6.0-7.6; **: 7.7-10; ***:10.1-20

Sprague Dawley rats = assay: Porsolt forced swim test; type: in vivo; settings: 0.1 mg/kg; for % reduction in float time: relative to vehicle group
Experimental: A non-clinical in vivo pharmacology study (Porsolt assay) was performed to measure antidepressant-like effects. A negative control (0.5% sodium carboxymethyl cellulose in 0.9% sterile saline vehicle) and a positive control (fluoxetine) are shown for comparison against test compound. The study allowed for the evaluation of the effects of each compound on the Porsolt forced swim test as assessed by the rats' response (reduced floating time) during a 5-minute swimming test.
Male 2-3 month old Sprague Dawley rats were used (Harlan, Indianapolis, Ind.). Rats were housed in Lucite cages with aspen wood chip bedding, maintained on a 12:12 light:dark cycle (lights on at 5 AM), and given ad libitum access to Purina lab chow (USA) and tap water throughout the study.
The Porsolt forced swim test adapted for use in rats was performed as described by Burgdorf et al., (The long-lasting antidepressant effects of rapastinel (GLYX-13) are associated with a metaplasticity process in the medial prefrontal cortex and hippocampus. Neuroscience 308:202-211, 2015). Animals were placed in a 46 cm tall×20 cm in diameter clear glass tube filled to 30 cm with tap water (23±1° C.) for 15 min on the first day (habituation) and 5 min on the subsequent test day. Positive control fluoxetine was dosed 3 times (24 h, 5 h and 1 h) prior to testing. Animals were tested 1 h or 24 h post-dosing with the test compounds or vehicle. Animals received a 15 min habituation session 1 day before the 5 min test. A subset of compounds tested at 1 h post-dosing were retested at 1 wk post-dosing in the same sets of animals. Water was changed after every other animal. Animals were videotaped, and floating time as defined as the minimal amount of effort required to keep the animals head above water was scored offline by a blinded experimenter with high inter-rater reliability (Pearson's r>0.9).
Each compound tested at dose level shown. Significance vs. vehicle group for each experiment is marked. […] A compound marked “No” was not statistically significant from vehicle. Data was averaged for test compound and vehicle groups (N approximately 8 per group) and the percent reduction in floating for group treated with test compound relative to group treated with vehicle is shown.

CSF Cmax [1] [ng/mL]	Brain Cmax [1] [ng/mL]	AUC(0-t) [1] [ng·h/mL]	bioavailability [1] [%]	Cmax [1] [ng/mL]	Tmax [1] [min]	A: % maximal [3H]MK-801 binding relative to 1 mM glycine (NMDAR2A)	EC50 (NMDAR2A) [nM]	EC50 (NMDAR2C) [nM]	EC50 (NMDAR2B) [nM]	EC50 (NMDAR2D) [nM]	Emax (NMDAR2D) [%]	AUC(0-t) (IV pharmacokinetics) [ng·h/mL]	clearance (IV pharmacokinetics) [mL/min/kg]	half-life (IV pharmacokinetics) [min]	C0 (IV pharmacokinetics) [ng/mL]	Vd (IV pharmacokinetics) [L/kg]	SMILES	other results
1415	2763	5010	75	4310	15	+ (<100%=+)	< 1	< 1	< 1	< 1	< 100	1330	24.9	29.4	2010	0.91	CC(C)(C)OC(=O)N1CCCC12CCNC2=O (single isomer, unassigned) [RM-1, tert-butyl 6-oxo-1,7-diazaspiro[4.4]nonane-1-carboxylate]	A: % maximal [3H]MK-801 binding relative to 1 mM glycine (NMDAR2B): ++ (>100%=++); Max Effect (mean number of 50 kHz USVs per 15 seconds) (rats): *** (***:10.1-20)
3157	2209	29500	84	10800	30	+ (<100%=+)	< 1	< 1	≥ 1	< 1	< 100	7010	4.74	243	3040	0.69	CC(C)C(=O)N1CCCC12CCNC2=O (centres unmarked) [RZ-405]	Emax (NMDAR2B; read-out: A: % maximal [3H]MK-801 binding relative to 1 mM glycine): > 100%; Significance vs. vehicle (Sprague Dawley rats; 1 h post-dose, floating time in 5 min test): Yes (statistically significant (p<=0.05) from vehicle at dose level shown); % reduction in float time (Sprague Dawley rats; 1 h post-dose): 78.9%; Significance vs. vehicle (Sprague Dawley rats; 24 h post-dose): Yes (statistically significant (p<=0.05) from vehicle at dose level shown); % reduction in float time (Sprague Dawley rats; 24 h post-dose): 42.7%
